# Source: article PMC10504751, “Chalcone/1,3,4-Oxadiazole/Benzimidazole hybrids as novel anti-proliferative agents inducing apoptosis and inhibiting EGFR & BRAFV^600E” (BMC Chemistry, 2023)
# Several values for one entry are separate records, joined by “and”; a condition that tells them apart may be missing. Equal values may be shown once.
# How the values were obtained:
# BRAF^V600E = experiment: biochemical
# Experimental: To further denature the protein, heat (70° C) was applied for 5 min. […] 10 µL of each reaction was loaded into the precast plates and electrophoresis was allowed to proceed. After completion of electrophoresis, the front part of the precast gel plate (holding hot ATP) was cut and afterwards cast-off. The dried gel was developed using a phosphor screen.
# HT-29 = experiment: Propidium iodide anti-proliferative assay; type: cell-based; conditions: Homo sapiens, 48 h incubation, read-out: IC50 ± SEM HT-29
# Experimental: (§1) The propidium iodide (PI) tests^31, 32 were further used for assessment of the IC50 of all synthesized compounds and compared to Doxorubicin as a positive control against four cancer cell lines; pancreatic cancer cell line (Panc-1), epithelial line cancer cell (A-549), breast cancer cell line (MCF-7), and colon cancer cell line (HT-29).
# (§2) Using the propidium iodide fluorescence assay with doxorubicin as the reference drug, IC50 of the 24 compounds 7a-x, was carried out according to a previously reported procedure^31, 32 against a panel of four human cancer cell lines; epithelial cancer cell line (A-549), breast cancer cell line (MCF-7), colon cancer cell line (HT-29) and pancreas cancer cell line (Panc-1). Compounds 7a-x were incubated with cancer cells for 2 days at different concentrations. See Appendix A.
# (§3) To explore the antiproliferative potential of compounds propidium iodide fluorescence assay was performed using different cell lines (melanoma cancer cell line LOX-IMVI, pancreatic cancer cell line (Panc-1), epithelial line cancer cell (A-549), breast cancer cell line (MCF-7), and colon cancer cell line (HT-29). To calculate the total nuclear DNA, a fluorescent dye (propidium iodide, PI) is used which can attach to the DNA,^9,^10 thus offering a quick and precise technique. PI cannot pass through the cell membrane and its signal intensity can be considered as directly proportional to the quantity of cellular DNA. Cells whose cell membranes are damaged or have changed permeability are counted as dead ones. The assay was performed by seeding the cells of different cancer cell lines at a density of 3000-7500 cells/well (in 200µl medium) in culture plates followed by incubation for 24h at 37 °C in humidified 5% CO2/95% air atmospheric conditions. The medium was removed; the compounds were added to the plates at 10 µM concentrations (in 0.1% DMSO) in triplicates, followed by incubation for 48 h. DMSO (0.1%) was used as control. After incubation, medium was removed followed by the addition of PI (25 µl, 50µg/mL in water/medium) to each well of the plates. At -80 °C, the plates were allowed to freeze for 24 h, followed by thawing at 25 °C. A fluorometer (Polar-Star BMG Tech) was used to record the readings at excitation and emission wavelengths of 530 and 620 nm for each well. The percentage cytotoxicity of compounds was calculated using the following formula:
# (§4) Where ATC= Absorbance of treated cells and AC= Absorbance of control. […]
# Panc-1 = experiment: Propidium iodide anti-proliferative assay; type: cell-based; conditions: Homo sapiens, 48 h incubation, read-out: IC50 ± SEM Panc-1
# Experimental: as §1, §2, §3, §4
# MCF-7 = experiment: Propidium iodide anti-proliferative assay; type: cell-based; conditions: Homo sapiens, MCF7; 48 h incubation; read-out: IC50 ± SEM MCF-7
# Experimental: as §1, §2, §3, §4
# A-549 = experiment: Propidium iodide anti-proliferative assay; type: cell-based; conditions: Homo sapiens, A549; 48 h incubation; read-out: IC50 ± SEM A-549
# Experimental: as §1, §2, §3, §4
# [1] = MTT cell viability assay in normal cells; type: cell-based; conditions: human, MCF-10A normal mammary epithelial cells
# Experimental: To check the safety of prepared compounds and evaluate their selectivity towards tumor cells over normal ones, the toxicity of compounds 7a-x were evaluated by 3-(4,5-Dimethylthiazole-2-yl)-2,5-diphenyltetrazol (MTT) assay on the normal human mammary epithelial cell line (MCF-10 A). The human mammary epithelial cell lines were incubated for four days with a concentration of 50 µM of compounds 7a-x.
# MTT assay was done to determine the effect of the synthesized compounds on the viability of mammary epithelial cells (MCF-10 A). Compounds 7a-x were incubated with MCF-10 A cells for 4 days at 50 µM concentration, and the viability of cells was determined. See Appendix A.
# MTT assay was carried out to study the effect of compounds on mammary epithelial cells (MCF-10A).^7, ^8 The medium in which cells were propagated contained Dulbecco's modified Eagle's medium (DMEM)/ Ham's F-12 medium (1:1) supplemented with epidermal growth factor (20 ng/mL), hydrocortisone (500 ng/mL), insulin (10 μg/mL), 2 mM glutamine and 10% foetal calf serum. After every 2-3 days, the cells were passaged using trypsin ethylenediamine tetra acetic acid (EDTA). The cells were seeded at a density of 10^4 cells mL^-1 in flat-bottomed culture plates containing 96 wells each. After 24 h, medium was removed from the plates and the compounds in (in 0.1% DMSO) were added (in 200 μL medium to yield a final concentration of 0.1% v/v) to the wells of plates. A single compound was designated with four wells followed by incubation of plates for 96h at 37°C. After incubation, medium was removed completely from the plates followed by addition of MTT (0.4 mg/mL in medium) to each well and subsequent incubation of plates for 3h. MTT (along with the medium) was removed and DMSO (150μL) was added to each well of the culture plates, followed by vortexing and subsequent measurement of absorbance (at 540 nm) using microplate reader.
# EGFR = biological target: T1, EGFR (Homo sapiens, UniProt P00533); experiment: EGFR-TK inhibitory assay; type: biochemical; conditions: for IC50: read-out: EGFR Inhibition IC50 ± SEM
# T1 construct: EGFR cytoplasmic domain (EGFR-CD, amino acids 645–1186); His6 (N); made in house; host or cells: Sf-9 insect cells (baculovirus; pBlueBacHis2B / pFASTBacHTc)
# T1 sequence (P00533 669-1210): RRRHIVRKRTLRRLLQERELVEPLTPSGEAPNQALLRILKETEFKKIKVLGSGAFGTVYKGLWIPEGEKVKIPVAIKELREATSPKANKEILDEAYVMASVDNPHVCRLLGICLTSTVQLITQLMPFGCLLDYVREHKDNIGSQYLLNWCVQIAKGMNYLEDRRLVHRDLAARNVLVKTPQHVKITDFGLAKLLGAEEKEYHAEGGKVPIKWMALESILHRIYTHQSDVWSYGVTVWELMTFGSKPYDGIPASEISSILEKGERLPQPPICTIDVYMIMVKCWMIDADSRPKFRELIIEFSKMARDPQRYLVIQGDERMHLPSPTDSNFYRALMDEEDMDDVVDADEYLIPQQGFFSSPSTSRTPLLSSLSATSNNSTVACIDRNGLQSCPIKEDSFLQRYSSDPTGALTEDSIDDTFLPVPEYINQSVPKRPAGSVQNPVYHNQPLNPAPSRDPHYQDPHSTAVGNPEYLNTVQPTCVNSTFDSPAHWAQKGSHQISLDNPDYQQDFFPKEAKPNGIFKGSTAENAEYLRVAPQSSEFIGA
# [2] = test system: melanoma LOX-IMVI cell line; experiment: Propidium iodide anti-proliferative assay in LOX-IMVI; type: cell-based, human; conditions: for IC50: Homo sapiens, melanoma LOX-IMVI, 48 h incubation; for fold more selective towards LOX-IMVI cell line: LOX-IMVI vs MCF-10 A
# Experimental: Consequently, the half-maximal inhibitory concentration (IC50) of these compounds was determined in LOX-IMVI cell line using propidium iodide (PI)^31, 32 with Staurosporine (broad spectrum protein kinase inhibitor) as a reference.
# Cells whose cell membranes are damaged or have changed permeability are counted as dead ones. […] The medium was removed; the compounds were added to the plates at 10 µM concentrations (in 0.1% DMSO) in triplicates, followed by incubation for 48 h. DMSO (0.1%) was used as control. After incubation, medium was removed followed by the addition of PI (25 µl, 50µg/mL in water/medium) to each well of the plates. At -80 °C, the plates were allowed to freeze for 24 h, followed by thawing at 25 °C. A fluorometer (Polar-Star BMG Tech) was used to record the readings at excitation and emission wavelengths of 530 and 620 nm for each well. The percentage cytotoxicity of compounds was calculated using the following formula:
# Where ATC= Absorbance of treated cells and AC= Absorbance of control.
# [3] = test system: Caspase-9 in MCF-7 breast cancer cells; experiment: Caspase-9 assay; type: cell-based, human; conditions: for Caspase-9 Fold change: MCF-7, vs untreated control; for Caspase-9 Conc: MCF-7 breast cancer cells
# [4] = test system: Caspase-8 in MCF-7 breast cancer cells; experiment: Caspase-8 assay; type: cell-based, human; conditions: for Caspase-8 Fold change: MCF-7, vs untreated control; for Caspase-8 Conc: MCF-7 breast cancer cells
# [5] = test system: Cytochrome C in MCF-7 human breast cancer cell line; experiment: Cytochrome C assay; type: cell-based; conditions: for Cytochrome C Fold change: MCF-7, vs untreated control; for Cytochrome C Conc: MCF-7 breast cancer cells
# BRAF^V600E, sequence (P28028 whole entry V585E): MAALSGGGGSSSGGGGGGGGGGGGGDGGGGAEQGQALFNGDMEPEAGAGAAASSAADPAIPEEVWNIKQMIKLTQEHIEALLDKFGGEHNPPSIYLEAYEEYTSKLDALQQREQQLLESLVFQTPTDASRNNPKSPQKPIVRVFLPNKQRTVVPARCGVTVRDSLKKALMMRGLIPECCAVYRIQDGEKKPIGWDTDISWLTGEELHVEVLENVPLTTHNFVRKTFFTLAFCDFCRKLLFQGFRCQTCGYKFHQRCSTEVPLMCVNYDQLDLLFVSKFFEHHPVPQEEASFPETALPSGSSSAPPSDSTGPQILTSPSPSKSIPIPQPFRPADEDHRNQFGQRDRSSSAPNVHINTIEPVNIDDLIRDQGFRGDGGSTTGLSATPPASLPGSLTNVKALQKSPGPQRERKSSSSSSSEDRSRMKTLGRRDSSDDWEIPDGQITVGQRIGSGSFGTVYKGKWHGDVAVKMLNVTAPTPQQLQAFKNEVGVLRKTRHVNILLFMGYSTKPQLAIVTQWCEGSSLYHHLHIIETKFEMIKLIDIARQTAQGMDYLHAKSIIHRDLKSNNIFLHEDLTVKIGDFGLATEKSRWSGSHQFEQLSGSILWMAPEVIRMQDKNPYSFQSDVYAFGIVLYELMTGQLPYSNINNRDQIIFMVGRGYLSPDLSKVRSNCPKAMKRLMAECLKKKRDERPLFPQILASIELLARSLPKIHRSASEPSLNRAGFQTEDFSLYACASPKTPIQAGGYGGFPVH
SMILES,IC50 (BRAF^V600E) [µM],melting point [°C],IC50 (HT-29) [µM],IC50 (Panc-1) [µM],IC50 (MCF-7) [µM],IC50 (A-549) [µM],"viability at 96 h, 50 µM [1] [%]",IC50 (EGFR) [µM],IC50 [2] [µM],Caspase-9 Fold change [3],Caspase-9 Conc [3] [ng/mL],Caspase-8 Fold change [4],Caspase-8 Conc [4] [ng/mL],Cytochrome C Fold change [5],Cytochrome C Conc [5] [ng/mL],fold less potent than Erlotinib against EGFR (EGFR),fold more selective towards LOX-IMVI cell line [2] [fold]
"COc1ccc(-c2nc3cc(-c4nnc(SCC(=O)Nc5ccc(C(=O)/C=C/c6ccccc6)cc5)o4)ccc3[nH]2)cc1OC [Compound 7p, 2-{5-[2-(3,4-Dimethoxyphenyl)-1 H-benzo[d]imidazol-5-yl]-1,3,4-oxadiazol-2-ylthio}-N-{4-[(E)-3-phenylacryloyl]phenyl}acetamide]",4.2 ± 0.3,185 to 186,3.3 ± 0.4,3.1 ± 0.4,2.1 ± 0.2,2.5 ± 0.5,87,3.5 ± 0.3,1.2 ± 0.1,–,–,–,–,–,–,–,–
"COc1ccc(-c2nc3cc(-c4nnc(SCC(=O)Nc5ccc(C(=O)/C=C/c6ccc(Cl)cc6)cc5)o4)ccc3[nH]2)cc1OC [Compound 7q, 2-{5-[2-(3,4-Dimethoxyphenyl)-1 H-benzo[d]imidazol-5-yl]-1,3,4-oxadiazol-2-ylthio}-N-{4-[(E)-3-(4-chlorophenyl)acryloyl]phenyl}acetamide]",4.7 ± 0.3,194 to 195,3.7 ± 0.5,3.8 ± 0.5,3.02 ± 0.3,3.4 ± 0.4,94,3.9 ± 0.3,2.5 ± 0.2,–,–,–,–,–,–,–,–
"COc1ccc(-c2nc3cc(-c4nnc(SCC(=O)Nc5ccc(C(=O)/C=C/c6ccccc6)cc5)o4)ccc3[nH]2)cc1 [Compound 7k, 2-{5-[2-(4-Methoxyphenyl)-1 H-benzo[d]imidazol-5-yl]-1,3,4-oxadiazol-2-ylthio}-N-{4-[(E)-3-phenylacryloyl]phenyl}acetamide]",1.7 ± 0.2,–,1.4 ± 0.2,1.3 ± 0.2,0.95 ± 0.08,1.2 ± 0.2,91,0.55 ± 0.1,–,17 fold and 17.00 fold,15.900,10 fold and 9.90 fold,1.680,14 fold and 14.00 fold,0.660,approximately 7 fold,–
"COc1ccc(-c2nc3cc(-c4nnc(SCC(=O)Nc5ccc(C(=O)/C=C/c6ccc(Cl)cc6)cc5)o4)ccc3[nH]2)cc1 [Compound 7l, 2-{5-[2-(4-Methoxyphenyl)-1 H-benzo[d]imidazol-5-yl]-1,3,4-oxadiazol-2-ylthio}-N-{4-[(E)-3-(4-chlorophenyl)acryloyl]phenyl}acetamide]",1.9 ± 0.2,–,1.65 ± 0.3,1.5 ± 0.3,1.1 ± 0.1,1.45 ± 0.3,89,0.8 ± 0.1,0.8 ± 0.1,16 fold and 16.00 fold,15.100,9 fold and 9.30 fold,1.570,13 fold and 13.00 fold,0.595,–,111
"COc1ccc(/C=C/C(=O)c2ccc(NC(=O)CSc3nnc(-c4ccc5[nH]c(-c6ccc(OC)cc6)nc5c4)o3)cc2)cc1 [Compound 7m, 2-{5-[2-(4-Methoxyphenyl)-1 H-benzo[d]imidazol-5-yl]-1,3,4-oxadiazol-2-ylthio}-N-{4-[(E)-3-(4-methoxyphenyl)acryloyl]phenyl}acetamide]",2.2 ± 0.2,–,1.85 ± 0.4,1.5 ± 0.2,1.2 ± 0.08,1.4 ± 0.5,94,0.9 ± 0.1,–,15.00 fold,13.900,7.90 fold,1.350,11 fold and 11.00 fold,0.515,–,–
"COc1cc(-c2nc3cc(-c4nnc(SCC(=O)Nc5ccc(C(=O)/C=C/c6ccc(Cl)cc6)cc5)o4)ccc3[nH]2)cc(OC)c1OC [Compound 7v, 2-{5-[2-(3,4,5-Trimethoxyphenyl)-1 H-benzo[d]imidazol-5-yl]-1,3,4-oxadiazol-2-ylthio}-N-{4-[(E)-3-(4-chlorophenyl)acryloyl]phenyl}acetamide]",3.1 ± 0.2,–,2.9 ± 0.5,2.6 ± 0.2,2.2 ± 0.08,2.45 ± 0.5,87,2.8 ± 0.3,0.9 ± 0.1,–,–,–,–,–,–,–,97
"O=C(CSc1nnc(-c2ccc3[nH]c(-c4ccc(Cl)cc4)nc3c2)o1)Nc1ccc(C(=O)/C=C/c2ccc(Cl)cc2)cc1 [Compound 7g, 2-{5-[2-(4-Chlorophenyl)-1 H-benzo[d]imidazol-5-yl]-1,3,4-oxadiazol-2-ylthio}-N-{4-[(E)-3-(4-chlorophenyl)acryloyl]phenyl}acetamide]",1 ± 0.2,215 to 217,2.1 ± 0.6,1.9 ± 0.5,1.45 ± 0.3,1.8 ± 0.6,91,1.7 ± 0.2,1.05 ± 0.1,–,–,–,–,–,–,–,–
